Laboratory results: patent US10196390B2, “TYK2 inhibitors and uses thereof” (Nimbus Lakshmi, Inc., priority 2014, dated 2019)
pKi: −log10 of the molar value.

Columns and labels:
[1] = biological target: TYK2 (Homo sapiens (Human), UniProt P29597); test: Tyk2 activity inhibition assay (radioactive kinase assay / Caliper assay); format: biochemical
How it was run: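 Two formats were used. Caliper off-chip mobility shift read phosphorylated peptide 30 (3 uM) after 25 min at 28° C with 9.75 nM TYK2 and ATP at 16 uM or 1 mM. Radioactive assay: 10 μM 33P-ATP, 20 μM peptide, 120 min room temp, P81 filter counting.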

[2] = biological target: JAK2 (Homo sapiens (Human), UniProt O60674); test: JAK2 activity inhibition assay (radioactive kinase assay / Caliper assay); format: biochemical; details: read-out: JAK2 Ki
How it was run: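 Reaction ran 25 min at 28° C after adding peptide/ATP mix (10 mM MgCl2) to compound and enzyme in HEPES pH 7.5 buffer with Brij-35, Triton and EGTA. EDTA stop, then microfluidic off-chip separation quantified phosphorylated peptide.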

Sequence of JAK2 (O60674 whole entry): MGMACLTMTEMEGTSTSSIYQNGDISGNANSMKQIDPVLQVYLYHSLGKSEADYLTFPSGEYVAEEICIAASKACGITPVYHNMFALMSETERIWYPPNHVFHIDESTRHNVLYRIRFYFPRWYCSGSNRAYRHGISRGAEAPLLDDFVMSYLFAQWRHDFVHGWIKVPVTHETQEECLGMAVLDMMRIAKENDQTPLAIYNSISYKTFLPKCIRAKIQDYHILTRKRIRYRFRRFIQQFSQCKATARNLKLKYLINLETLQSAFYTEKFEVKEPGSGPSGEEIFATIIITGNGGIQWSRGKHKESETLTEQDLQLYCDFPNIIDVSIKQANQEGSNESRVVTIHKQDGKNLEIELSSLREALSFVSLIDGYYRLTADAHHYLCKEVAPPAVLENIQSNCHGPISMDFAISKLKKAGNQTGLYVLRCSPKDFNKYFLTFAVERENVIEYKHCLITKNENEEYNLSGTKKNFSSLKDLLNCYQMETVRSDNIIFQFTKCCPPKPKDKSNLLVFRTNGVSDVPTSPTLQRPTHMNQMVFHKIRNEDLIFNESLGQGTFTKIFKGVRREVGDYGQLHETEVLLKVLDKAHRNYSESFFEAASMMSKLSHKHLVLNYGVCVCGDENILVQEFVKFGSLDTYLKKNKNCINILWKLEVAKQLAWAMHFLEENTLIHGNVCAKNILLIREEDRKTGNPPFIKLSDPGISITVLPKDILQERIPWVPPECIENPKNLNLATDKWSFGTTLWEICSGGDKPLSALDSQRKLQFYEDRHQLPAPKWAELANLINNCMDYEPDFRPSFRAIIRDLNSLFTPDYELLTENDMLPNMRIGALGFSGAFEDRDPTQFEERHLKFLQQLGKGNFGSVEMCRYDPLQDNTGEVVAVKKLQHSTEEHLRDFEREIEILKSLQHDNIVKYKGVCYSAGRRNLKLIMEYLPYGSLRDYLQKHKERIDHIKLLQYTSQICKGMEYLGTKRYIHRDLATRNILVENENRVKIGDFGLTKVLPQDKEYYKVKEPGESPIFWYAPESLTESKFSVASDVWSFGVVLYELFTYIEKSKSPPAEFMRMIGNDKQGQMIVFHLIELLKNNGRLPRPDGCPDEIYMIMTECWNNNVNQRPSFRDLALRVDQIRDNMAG
Sequence of TYK2 (P29597 whole entry): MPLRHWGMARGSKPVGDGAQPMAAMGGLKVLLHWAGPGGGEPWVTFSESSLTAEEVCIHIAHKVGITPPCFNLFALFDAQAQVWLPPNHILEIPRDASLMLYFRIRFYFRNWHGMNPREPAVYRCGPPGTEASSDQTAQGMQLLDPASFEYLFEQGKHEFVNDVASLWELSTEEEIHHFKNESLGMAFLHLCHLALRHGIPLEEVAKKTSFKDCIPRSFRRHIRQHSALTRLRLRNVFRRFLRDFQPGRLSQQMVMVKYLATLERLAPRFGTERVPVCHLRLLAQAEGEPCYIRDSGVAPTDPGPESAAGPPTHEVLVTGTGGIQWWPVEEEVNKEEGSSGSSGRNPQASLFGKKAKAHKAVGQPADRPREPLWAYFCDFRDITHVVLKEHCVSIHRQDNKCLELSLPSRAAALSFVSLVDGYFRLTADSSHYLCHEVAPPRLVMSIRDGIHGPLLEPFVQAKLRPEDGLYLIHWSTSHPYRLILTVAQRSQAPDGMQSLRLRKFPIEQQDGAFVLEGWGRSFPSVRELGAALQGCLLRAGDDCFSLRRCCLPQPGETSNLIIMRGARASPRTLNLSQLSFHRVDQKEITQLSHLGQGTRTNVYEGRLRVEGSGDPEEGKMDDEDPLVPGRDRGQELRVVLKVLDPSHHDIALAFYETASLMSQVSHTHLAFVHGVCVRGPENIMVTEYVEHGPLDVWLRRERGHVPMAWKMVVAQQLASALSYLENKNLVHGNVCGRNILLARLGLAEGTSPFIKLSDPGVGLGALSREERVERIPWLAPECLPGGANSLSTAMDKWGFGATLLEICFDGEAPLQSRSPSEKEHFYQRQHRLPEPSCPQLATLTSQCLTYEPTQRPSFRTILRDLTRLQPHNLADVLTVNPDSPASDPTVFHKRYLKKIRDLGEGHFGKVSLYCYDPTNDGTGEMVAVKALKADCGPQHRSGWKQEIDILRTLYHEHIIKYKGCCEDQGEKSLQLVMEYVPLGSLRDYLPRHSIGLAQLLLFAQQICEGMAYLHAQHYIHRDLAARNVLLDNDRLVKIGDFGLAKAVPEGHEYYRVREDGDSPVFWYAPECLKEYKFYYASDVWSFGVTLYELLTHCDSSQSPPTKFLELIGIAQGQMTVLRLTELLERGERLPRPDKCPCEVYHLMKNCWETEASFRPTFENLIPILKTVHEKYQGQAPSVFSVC

| Compound | pKi [1] | pKi [2] |
| --- | --- | --- |
| O=C1NCc2nc(-c3c(F)cccc3F)nc(Nc3ccc(C(=O)N4CC(O)C4)cc3)c21 [Compound I-168, 2-(2,6-difluorophenyl)-4-((4-(3-hydroxyazetidine-1-carbo-nyl)phenyl)amino)-6,7-dihydro-5H-pyrrolo[3,4-d]pyrimidin-5-one] | > 8.00 | 6.00 to 7.00 |
| O=C1NCc2nc(-c3c(F)cccc3F)cc(Nc3ccc([C@H]4CCNC4=O)cn3)c21 [Compound I-91, (R)-2-(2,6-difluorophenyl)-4-((5-(2-oxopyrrolidin-3-yl)pyridin-2-yl)amino)-6,7-dihydro-5H-pyrrolo[3,4-b]pyridin-5-one] | > 8.00 | 7.00 to 8.00 |
| COCCC1(c2ccc(Nc3nc(-c4c(F)cccc4F)nc4c3C(=O)NC4)cc2)CCNC1=O (centres unmarked) [Compound I-116, 2-(2,6-difluorophenyl)-4-((4-(3-(2-methoxyethyl)-2-oxopyrrolidin-3-yl)phenyl)amino)-6,7-dihydro-5H-pyrrolo[3,4-d]pyrimidin-5-one] | > 8.00 | 7.00 to 8.00 |
| CC1(C)C[C@@H](c2ccc(Nc3nc(-c4c(F)cccc4F)nc4c3C(=O)NC4)cc2)C(=O)N1 [Compound I-218, (S)-2-(2,6-difluorophenyl)-4-((4-(5,5-dimethyl-2-oxopyrrolidin-3-yl)phenyl)amino)-6,7-dihydro-5H-pyrrolo[3,4-d]pyrimidin-5-one] | > 8.00 | 6.00 to 7.00 |
| O=C(Cc1ccc(Nc2nc(-c3c(F)cccc3Cl)nc3c2C(=O)NC3)cc1)N[C@@H]1CCNC1 [Compound I-81, (R)-2-(4-((2-(2-chloro-6-fluorophenyl)-5-oxo-6,7-dihydro-5H-pyrrolo[3,4-d]pyrimidin-4-yl)amino)phenyl)-N-(pyrrolidin-3-yl)acetamide] | > 8.00 | 6.00 to 7.00 |
| O=C1NCc2nc(-c3c(F)cccc3F)cc(Nc3ccc(C(=O)N4CCOCC4)nc3)c21 [Compound I-280, 2-(2,6-difluorophenyl)-4-((6-(morpholine-4-carbonyl)pyridin-3-yl)amino)-6,7-dihydro-5H-pyrrolo[3,4-b]pyridin-5-one] | 7.00 to 8.00 | 6.00 to 7.00 |
| COC(=O)Cc1ccc(Nc2cc(-c3c(F)cccc3F)nc3c2C(=O)NC3)nc1 [Compound I-132, methyl 2-(6-((2-(2,6-difluorophenyl)-5-oxo-6,7-dihydro-5H-pyrrolo[3,4-b]pyridin-4-yl)amino)pyridin-3-yl)acetate] | > 8.00 | 7.00 to 8.00 |
| O=C1NCc2nc(-c3c(F)cccc3F)cc(Nc3ccc(OCCN4CCC4)cn3)c21 [Compound I-134, 4-((5-(2-(azetidin-1-yl)ethoxy)pyridin-2-yl)amino)-2-(2,6-difluorophenyl)-6,7-dihydro-5H-pyrrolo[3,4-b]pyridin-5-one] | > 8.00 | 7.00 to 8.00 |
| O=C1NCc2nc(-c3c(F)cccc3F)nc(Nc3ccc(CC(=O)N4CCS(=O)(=O)CC4)cc3)c21 [Compound I-84, 2-(2,6-difluorophenyl)-4-((4-(2-(1,1-dioxidothiomorpholino)-2-oxoethyl)phenyl)amino)-6,7-dihydro-5H-pyrrolo[3,4-d]pyrimidin-5-one] | > 8.00 | 7.00 to 8.00 |
| CC1(C)CC(c2ccc(Nc3nc(-c4c(F)cccc4F)nc4c3C(=O)NC4)cc2)C(=O)N1 (centres unmarked) [Compound I-213, 2-(2,6-difluorophenyl)-4-((4-(5,5-dimethyl-2-oxopyrrolidin-3-yl)phenyl)amino)-6,7-dihydro-5H-pyrrolo[3,4-d]pyrimidin-5-one] | > 8.00 | 6.00 to 7.00 |
| O=C1NCc2nc(-c3c(F)cccc3F)nc(Nc3ccccc3)c21 [Compound I-179, 2-(2,6-difluorophenyl)-4-(phenylamino)-6,7-dihydro-5H-pyrrolo[3,4-d]pyrimidin-5-one] | 7.00 to 8.00 | 6.00 to 7.00 |
| O=C1NCc2nc(-c3c(F)cccc3F)nc(Nc3ccc(CC(=O)N4CCOCC4C(=O)O)cc3)c21 (centres unmarked) [Compound I-202, 4-(2-(4-((2-(2,6-difluorophenyl)-5-oxo-6,7-dihydro-5H-pyrrolo-[3,4-d]pyrimidin-4-yl)amino)phenyl)acetyl)morpholine-3-carboxylic Acid] | > 8.00 | 6.00 to 7.00 |
| COc1ccc(Nc2cc(-c3c(F)cccc3F)nc3c2C(=O)NC3)cc1 [Compound I-230, 2-(2,6-difluorophenyl)-4-((4-methoxyphenyl)amino)-6,7-dihydro-5H-pyrrolo[3,4-b]pyridin-5-one] | > 8.00 | 6.00 to 7.00 |
| O=C1NCc2nc(-c3c(F)cccc3F)nc(Nc3ccc(CC(=O)N4CCOC[C@H]4C(=O)O)cc3)c21 [Compound I-112, (S)-4-(2-(4-((2-(2,6-difluorophenyl)-5-oxo-6,7-dihydro-5H-pyrrolo[3,4-d]pyrimidin-4-yl)amino)phenyl)acetyl)morpholine-3-carboxylic Acid] | > 8.00 | 6.00 to 7.00 |
| CN1C(=O)C(C)(c2ccc(Nc3nc(-c4c(F)cccc4F)nc4c3C(=O)NC4)cc2)CC1(C)C (centres unmarked) [Compound I-220, 2-(2,6-difluorophenyl)-4-((4-(1,3,5,5-tetramethyl-2-oxo-pyrrolidin-3-yl)phenyl)amino)-6,7-dihydro-5H-pyrrolo[3,4-d]pyrimidin-5-one] | > 8.00 | 7.00 to 8.00 |
| O=C(O)Cc1ccc(Nc2nc(-c3c(F)cccc3C(F)(F)F)nc3c2C(=O)NC3)cc1 [Compound I-82, 2-(4-((2-(2-fluoro-6-(trifluoromethyl)phenyl)-5-oxo-6,7-dihydro-5H-pyrrolo[3,4-d]pyrimidin-4-yl)amino)phenyl)acetic Acid] | 7.00 to 8.00 | < 6.00 |
| C[C@@H](CO)NC(=O)Cc1ccc(Nc2nc(-c3c(F)cccc3F)nc3c2C(=O)NC3)cc1 [Compound I-74, (S)-2-(4-((2-(2,6-difluorophenyl)-5-oxo-6,7-dihydro-5H-pyrrolo[3,4-d]pyrimidin-4-yl)amino)phenyl)-N-(1hydroxypropan-2-yl)acetamide] | > 8.00 | 6.00 to 7.00 |
| CN1CCN[C@@](C)(c2ccc(Nc3nc(-c4c(F)cccc4F)nc4c3C(=O)NC4)cc2)C1=O [Compound I-217, (S)-2-(2,6-difluorophenyl)-4-((4-(2,4-dimethyl-3-oxopiperazin-2-yl)phenyl)amino)-6,7-dihydro-5H-pyrrolo[3,4-d]pyrimidin-5-one] | > 8.00 | 7.00 to 8.00 |
| O=C(O)Cc1ccc(Nc2nc(-c3c(F)cccc3F)nc3c2C(=O)NC3)cn1 [Compound I-17] | 6.00 to 7.00 | < 6.00 |
| O=C(NCCO)c1ccc(Nc2cc(-c3c(F)cccc3F)nc3c2C(=O)NC3)nc1 [Compound I-164, 6-((2-(2,6-difluorophenyl)-5-oxo-6,7-dihydro-5H-pyrrolo[3,4-b]pyridin-4-yl)amino)-N-(2-hydroxyethyl)nicotinamide] | > 8.00 | 7.00 to 8.00 |
| CCOC(=O)Cc1ccc(Nc2nc(-c3ccccc3Cl)nc3c2C(=O)NC3)cc1 [Compound I-1, Ethyl 2-(4-((2-(2-chlorophenyl)-5-oxo-6,7-dihydro-5H-pyrrolo[3,4-d]pyrimidin-4-yl)amino)phenyl)acetate] | > 8.00 | 6.00 to 7.00 |
| CN1CCNC(C)(c2ccc(Nc3nc(-c4c(F)cccc4F)nc4c3C(=O)NC4)cc2)C1=O (centres unmarked) [Compound I-215, 2-(2,6-difluorophenyl)-4-((4-(2,4-dimethyl-3-oxopiperazin-2-yl)phenyl)amino)-6,7-dihydro-5H-pyrrolo[3,4-d]pyrimidin-5-one] | > 8.00 | 7.00 to 8.00 |
